Key:
Format in all cases: in vivo
bulrush [1] = test: Test Example 2: weedkilling efficacy, growth period weed treatment in the submerged state; B: bulrush
Outline: (§1)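 Weeds treated at the 1-2 leaf stage by application of diluted emulsion onto floodwater (4 cm depth, alluvial soil) at specified g/ha. Grown in greenhouse at 25 to 30° C; herbicidal effect rated three weeks after treatment.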

barnyard grass [2] = test: Test Example 2: weedkilling efficacy, growth period weed treatment in the submerged state; A: barnyard grass
Outline: as §1

oval-leafed pondweed [3] = test: Test Example 1: weedkilling efficacy, preemergent weed treatment in the submerged state; C: oval-leafed pondweed
Outline: (§2)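 Pre-emergence application onto floodwater (4 cm, alluvial soil) on the day of sowing, dose expressed as g/ha from diluted emulsion formulation. Weeds sown with 2.5-leaf transplanted rice as crop; plants held at 25–30 °C in greenhouse and scored against assessment criteria after 3 weeks.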

bulrush [4] = test: Test Example 1: weedkilling efficacy, preemergent weed treatment in the submerged state; B: bulrush
Outline: as §2

transplanted rice = test: Test Example 1: preemergent weed treatment in the submerged state, effect on crop; a: transplanted rice
Outline: as §2

barnyard grass [5] = test: Test Example 1: weedkilling efficacy, preemergent weed treatment in the submerged state; A: barnyard grass
Outline: as §2

oval-leafed pondweed [6] = test: Test Example 2: weedkilling efficacy, growth period weed treatment in the submerged state; C: oval-leafed pondweed
Outline: as §1

Row | Compound | B (bulrush) weedkilling efficacy grade (bulrush [1]; treatment dosage 320 g/ha) | A (barnyard grass) weedkilling efficacy grade (barnyard grass [2]; treatment dosage 320 g/ha) | C: oval-leafed pondweed, weed kill grade (oval-leafed pondweed [3]; treatment dosage 320 g/ha) | B: bulrush, weed kill grade (bulrush [4]; treatment dosage 320 g/ha) | a: transplanted rice, effect on crop grade (transplanted rice; treatment dosage 320 g/ha) | A: barnyard grass, weed kill grade (barnyard grass [5]; treatment dosage 320 g/ha) | C (oval-leafed pondweed) weedkilling efficacy grade (oval-leafed pondweed [6]; treatment dosage 320 g/ha) | B (bulrush) weedkilling efficacy grade (bulrush [1]; treatment dosage 1000 g/ha) | A (barnyard grass) weedkilling efficacy grade (barnyard grass [2]; treatment dosage 1000 g/ha) | C: oval-leafed pondweed, weed kill grade (oval-leafed pondweed [3]; treatment dosage 1000 g/ha) | B: bulrush, weed kill grade (bulrush [4]; treatment dosage 1000 g/ha) | a: transplanted rice, effect on crop grade (transplanted rice; treatment dosage 1000 g/ha) | A: barnyard grass, weed kill grade (barnyard grass [5]; treatment dosage 1000 g/ha) | C (oval-leafed pondweed) weedkilling efficacy grade (oval-leafed pondweed [6]; treatment dosage 1000 g/ha)
1 | Cc1cccc(N2COCN(C(C)(C)C(=O)Nc3cc(C(F)(F)F)ccn3)C2=O)c1 [A-6-07] | 5 (weed kill ratio 90% or more, (practically complete withering)) | 4 (weed kill ratio 70% or more, less than 90%) | 5 (weed kill ratio 90% or more, (practically complete withering)) | 5 (weed kill ratio 90% or more, (practically complete withering)) | 1 (weed kill ratio 5% or more, less than 20%) | 5 (weed kill ratio 90% or more, (practically complete withering)) | 3 (weed kill ratio 40% or more, less than 70%) | – | – | – | – | – | – | –
2 | Cc1cccc(N2COCN(C(C)(C)C(=O)Nc3cc(Cl)cc(Cl)n3)C2=O)c1 [A-6-08] | 5 (weed kill ratio 90% or more, (practically complete withering)) | 5 (weed kill ratio 90% or more, (practically complete withering)) | 5 (weed kill ratio 90% or more, (practically complete withering)) | 5 (weed kill ratio 90% or more, (practically complete withering)) | 0 (weed kill ratio 5% or less (practically no effect)) | 5 (weed kill ratio 90% or more, (practically complete withering)) | 4 (weed kill ratio 70% or more, less than 90%) | – | – | – | – | – | – | –
3 | Cc1ccc(N2COCN(C(C)(C)C(=O)Nc3cc(F)cc(F)n3)C2=O)cc1 [A-6-10] | 5 (weed kill ratio 90% or more, (practically complete withering)) | 4 (weed kill ratio 70% or more, less than 90%) | 5 (weed kill ratio 90% or more, (practically complete withering)) | 5 (weed kill ratio 90% or more, (practically complete withering)) | 1 (weed kill ratio 5% or more, less than 20%) | 5 (weed kill ratio 90% or more, (practically complete withering)) | 5 (weed kill ratio 90% or more, (practically complete withering)) | – | – | – | – | – | – | –
4 | Cc1ccc(N2COCN(C(C)(C)C(=O)Nc3cc(Cl)cc(F)n3)C2=O)cc1 [A-6-11] | 5 (weed kill ratio 90% or more, (practically complete withering)) | 4 (weed kill ratio 70% or more, less than 90%) | 5 (weed kill ratio 90% or more, (practically complete withering)) | 5 (weed kill ratio 90% or more, (practically complete withering)) | 0 (weed kill ratio 5% or less (practically no effect)) | 5 (weed kill ratio 90% or more, (practically complete withering)) | 5 (weed kill ratio 90% or more, (practically complete withering)) | – | – | – | – | – | – | –
5 | Cc1ccc(N2COCN(C(C)(C)C(=O)Nc3cc(Cl)cc(Cl)n3)C2=O)cc1 [A-6-12] | 5 (weed kill ratio 90% or more, (practically complete withering)) | 4 (weed kill ratio 70% or more, less than 90%) | 5 (weed kill ratio 90% or more, (practically complete withering)) | 5 (weed kill ratio 90% or more, (practically complete withering)) | 2 (weed kill ratio 20% or more, less than 40%) | 5 (weed kill ratio 90% or more, (practically complete withering)) | 5 (weed kill ratio 90% or more, (practically complete withering)) | – | – | – | – | – | – | –
6 | O=C1N(c2ccccc2)COCN1C1(C(=O)Nc2cc(Cl)cc(Cl)n2)CC1 [A-7-04] | – | – | – | – | – | – | – | 1 (weed kill ratio 5% or more, less than 20%) | 0 (weed kill ratio 5% or less (practically no effect)) | 0 (weed kill ratio 5% or less (practically no effect)) | 5 (weed kill ratio 90% or more, (practically complete withering)) | 0 (weed kill ratio 5% or less (practically no effect)) | 0 (weed kill ratio 5% or less (practically no effect)) | 0 (weed kill ratio 5% or less (practically no effect))
